Reference: patent US10723711B2, “1,1,1-trifluoro-3-hydroxypropan-2-yl carbamate derivatives and 1,1,1-trifluoro-4-hydroxybutan-2-yl carbamate derivatives as MAGL inhibitors” (PFIZER INC., priority 2015, dated 2020)
Structures can show the parent of a compound that is named as a salt. Where two headings read alike, the source gives them in different places.

Target: T1, human recombinant Monoacylglycerol Lipase (Homo sapiens, UniProt Q99685)
T1 sequence (Q99685 1-303): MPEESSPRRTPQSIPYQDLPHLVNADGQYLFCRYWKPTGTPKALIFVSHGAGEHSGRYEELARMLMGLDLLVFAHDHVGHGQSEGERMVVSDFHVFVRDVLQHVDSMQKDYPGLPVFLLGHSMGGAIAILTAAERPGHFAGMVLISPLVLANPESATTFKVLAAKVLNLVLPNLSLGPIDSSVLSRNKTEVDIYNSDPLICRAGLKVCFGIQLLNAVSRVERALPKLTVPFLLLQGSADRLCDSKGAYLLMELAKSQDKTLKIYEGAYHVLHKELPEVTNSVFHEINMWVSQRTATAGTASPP
Experiment: MAGL inhibition enzymatic assay, fluorogenic substrate 7-HCA, IC50 at T=0 min or after 30 minute incubation (T=30 min)
Type: biochemical
Conditions: geometric mean of 2-4 determinations unless otherwise indicated
Procedure: An equal volume of 7-HCA in assay buffer with 10% DMSO was added either immediately (T=0 min) or after a 30 minute incubation (T=30 min) to initiate the reaction. […] After these dilutions, the final concentration of the test compound ranged from 3 μM to 0.03 nM. […] IC50 values were generated based on a four parameter fit model using ABASE software from IDBS.

[1] = T = 0 min (substrate added immediately), read-out: MAGL (T = 0 min) IC50
[2] = T = 30 min (30 minute incubation), read-out: MAGL (T = 30 min) IC50

| Compound | IC50 [1] | IC50 [2] |
| --- | --- | --- |
| CN(C)CCOP(=O)(O)OC[C@@H](OC(=O)N1CCC2(CC1)CN(S(=O)(=O)c1ccc(F)cc1)CCO2)C(F)(F)F (mixture of isomers) [Example 89] | > 3000 nM | > 3000 nM |
| O=C(O[C@H](CO)C(F)(F)F)N1CCC2(CC1)CC(c1cccnc1)CO2 (mixture of isomers) [Example 122] | 385 nM | 32 nM |
| O=C(O[C@H](CO)C(F)(F)F)N1CCC2(CC1)CN(CC1CCCOC1)CCO2 (single isomer, unassigned) [Example 5] | 1700 nM | 161 nM |
| CC1N(S(=O)(=O)c2ccc(F)cc2)CCOC12CCN(C(=O)O[C@H](CO)C(F)(F)F)CC2 (single isomer, unassigned) [Example 70] | 655 nM | 69 nM |
| O=C(O[C@H](CO)C(F)(F)F)N1CCC2(CC1)CC(n1cccn1)CO2 (single isomer, unassigned) [Example 104] | 1860 nM | 157 nM |
| CN(C1COC2(CCN(C(=O)O[C@H](CO)C(F)(F)F)CC2)C1)S(=O)(=O)C1CCOCC1 (single isomer, unassigned) [Example 116] | 986 nM | 84 nM |
| CN(C1COC2(CCN(C(=O)O[C@H](CO)C(F)(F)F)CC2)C1)S(=O)(=O)C1CCOCC1 (single isomer, unassigned) [Example 117] | 1970 nM | 153 nM |
| O=C(O[C@H](CO)C(F)(F)F)N1CCC2(CC1)CC(Oc1ccccn1)CO2 (single isomer, unassigned) [Example 129] | > 3000 nM | 474 nM |
| O=C(OC(C(F)(F)F)C(F)(F)CO)N1CCC2(CC1)CN(S(=O)(=O)c1ccc(F)cc1)CCO2 (single isomer, unassigned; ent-2) [Example 21, 1,1,1,3,3-Pentafluoro-4-hydroxybutan-2-yl 4-[(4-fluorophenyl)sulfonyl]-1-oxa-4,9-diazaspiro[5.5]undecane-9-carboxylate, ENT-2] | 599 nM | 53 nM |
| O=C(O[C@H](CO)C(F)(F)F)N1C[C@@H]2CN(S(=O)(=O)c3ccc(F)c(F)c3)C[C@@H]2C1 [Example 13, (2R)-1,1,1-Trifluoro-3-hydroxypropan-2-yl (3aR,6aS)-5-[(3,4-difluorophenyl)sulfonyl]hexahydropyrrolo[3,4-c]pyrrole-2(1H)-carboxylate] | 368 nM | 35 nM |
| O=C(O[C@H](CO)C(F)(F)F)N1CCC2(CC1)CN(c1ccc(F)cn1)CCO2 [Example 14, (2R)-1,1,1-Trifluoro-3-hydroxypropan-2-yl 4-(5-fluoropyridin-2-yl)-1-oxa-4,9-diazaspiro[5.5]undecane-9-carboxylate] | 485 nM | 45 nM |
| O=C(O[C@H](CO)C(F)(F)F)N1CCC(O)(CNS(=O)(=O)c2ccccc2)CC1 [Example 16, (2R)-1,1,1-Trifluoro-3-hydroxypropan-2-yl 4-hydroxy-4-{[(phenylsulfonyl)amino]methyl}piperidine-1-carboxylate] | 1840 nM | 161 nM |
| O=C1COC2(CCN(C(=O)O[C@H](CO)C(F)(F)F)CC2)CN1Cc1ccc(F)cc1 [Example 17, (2R)-1,1,1-Trifluoro-3-hydroxypropan-2-yl 4-(4-fluorobenzyl)-3-oxo-1-oxa-4,9-diazaspiro[5.5]undecane-9-carboxylate] | 951 nM | 110 nM |
| CCC1CN(S(=O)(=O)c2ccc(F)cc2)CC2(CCN(C(=O)O[C@H](CO)C(F)(F)F)CC2)O1 (stereo partly drawn) [Example 18, (2R)-1,1,1-Trifluoro-3-hydroxypropan-2-yl 2-ethyl-4-[(4-fluorophenyl)sulfonyl]-1-oxa-4,9-diazaspiro[5.5]undecane-9-carboxylate] | 524 nM | 49 nM |
| O=C(O[C@H](CO)C(F)(F)F)N1CCC2(CC1)CN(S(=O)(=O)N1CCOCC1)CCO2 [Example 22, (2R)-1,1,1-Trifluoro-3-hydroxypropan-2-yl 4-(morpholin-4-ylsulfonyl)-1-oxa-4,9-diazaspiro[5.5]undecane-9-carboxylate] | 2640 nM | 192 nM |
| O=C(O[C@H](CO)C(F)(F)F)N1C2CCC1CN(Cc1ccc(F)cc1)C2 [Example 23, (2R)-1,1,1-Trifluoro-3-hydroxypropan-2-yl 3-(4-fluorobenzyl)-3,8-diazabicyclo[3.2.1]octane-8-carboxylate] | > 1520 nM | 78 nM |
| CN(CC1(O)CCN(C(=O)O[C@H](CO)C(F)(F)F)CC1)S(=O)(=O)c1ccccc1 [Example 24, (2R)-1,1,1-Trifluoro-3-hydroxypropan-2-yl 4-hydroxy-4-{[methyl(phenylsulfonyl)amino]methyl}piperidine-1-carboxylate] | 1900 nM | 195 nM |
| O=C(O[C@H](CO)C(F)(F)F)N1CCN(Cc2ccc(F)cc2)CC1 [Example 25, (2R)-1,1,1-trifluoro-3-hydroxypropan-2-yl 4-(4-fluorobenzyl)piperazine-1-carboxylate] | 794 nM | 71 nM |
| O=C(O[C@H](CO)C(F)(F)F)N1CCC2(CC1)CC(Nc1ccccn1)CO2 (stereo partly drawn) [Example 27, (2R)-1,1,1-Trifluoro-3-hydroxypropan-2-yl 3-(pyridin-2-ylamino)-1-oxa-8-azaspiro[4.5]decane-8-carboxylate] | 484 nM | 43 nM |
| O=C(O[C@H](CO)C(F)(F)F)N1CCC2(CC1)CN(Cc1ccc(F)cc1)S(=O)(=O)CO2 [Example 28, (2R)-1,1,1-Trifluoro-3-hydroxypropan-2-yl 4-(4-fluorobenzyl)-1-oxa-3-thia-4,9-diazaspiro[5.5]undecane-9-carboxylate 3,3-dioxide] | 696 nM | 85 nM |
| CN([C@H]1COC2(CCN(C(=O)O[C@H](COP(=O)(O)O)C(F)(F)F)CC2)C1)S(=O)(=O)c1ccccc1 [Example 30, (2R)-3,3,3-Trifluoro-2-[({(3R)-3-[methyl(phenylsulfonyl)amino]-1-oxa-8-azaspiro[4.5]dec-8-yl}carbonyl)oxy]propyl phosphate, disodium salt] | > 3000 nM | 549 nM |
| O=C(O[C@H](COP(=O)(O)O)C(F)(F)F)N1CCC2(CC1)CN(S(=O)(=O)c1ccc(F)cc1)CCO2 [Example 33, (2R)-3,3,3-Trifluoro-2-[({4-[(4-fluorophenyl)sulfonyl]-1-oxa-4,9-diazaspiro[5.5]undec-9-yl}carbonyl)oxy]propyl phosphate, (bis)-L-lysine salt] | > 3000 nM | > 3000 nM |
| O=C(OC(CO)C(F)(F)F)N1CCC(c2ccnc(N3CCOCC3)n2)CC1 (stereo not drawn) [Example 35] | 339 nM | 32 nM |
| O=C(OC(CO)C(F)(F)F)N1CCC(c2ccn(C3CCOCC3)n2)CC1 (stereo not drawn) [Example 38, 1,1,1-trifluoro-3-hydroxypropan-2-yl 4-[1-(tetrahydro-2H-pyran-4-yl)-1H-pyrazol-3-yl]piperidine-1-carboxylate] | 1470 nM | 77 nM |
| O=C(O[C@H](CO)C(F)(F)F)N1C[C@@H]2CN(S(=O)(=O)c3ccc(F)cc3)C[C@@H]2C1 [Example 40] | 494 nM | 50 nM |
| O=C(O[C@H](CO)C(F)(F)F)N1CCC2(CCCN(Cc3ccc(F)cc3)C2)CC1 [Example 41] | 1580 nM | 166 nM |
| O=C(O[C@H](CO)C(F)(F)F)N1CCC(O)(CN(Cc2ccc(F)cc2)C2CCOCC2)CC1 [Example 46] | 560 nM | 46 nM |
